Measurements reported in article PMC10537604, “Development and Assessment of 1,5–Diarylpyrazole/Oxime Hybrids Targeting EGFR and JNK–2 as Antiproliferative Agents: A Comprehensive Study through Synthesis, Molecular Docking, and Evaluation” (Molecules, 2023).

Tests used:
[1] = test system: human myelogenous leukemia cell line K562; assay: WST-8 antiproliferative assay, K562; format: cell-based; conditions: Homo sapiens, K562, WST-8 assay; for inhibition at 100 µM: read-out: Growth Inhibition (GI%) K562; for IC50: six concentrations 1-100 µM, read-out: IC50 K562
Protocol: Compounds 7a–j, 8a–j, 9a–c, and 10a–c were evaluated for in vitro anticancer activities against five different cancer cell lines, namely, human colorectal adenocarcinoma cell lines DLD-1, human cervical cancer cell line Hela, human pancreatic cancer cell line SUIT-2, human myelogenous leukemia cell line K562, and human hepatocellular carcinoma cell line HepG2 using WST-8 assay at concentrations of 100 µM to investigate the growth inhibition percent (GI%) of each compound using daunorubicin as a reference drug. […]. […] So, as a conclusion on the SAR study of those compounds as antiproliferative agents, the oxime moiety potentiated the anticancer activity and electron donating groups on R1 and R2 played an important role on this activity. Moreover, the sulfamoyl moiety on R3 seems to play a potential role in the activity of the prepared compounds (Table 1).
All selected compounds and daunorubicin were recorded as the minimum concentration required to inhibit half cell growth (IC50) and the results are listed in Table 2.
Evaluation of anticancer activity was performed according to the standard water-soluble tetrazolium-8 (WST-8) assay at the Faculty of Engineering, Yamagata University, Yonezawa, Japan, using an MTP-310 absorbance microplate reader. The EGFR inhibitory assay was carried out at the Faculty of Engineering, Yamagata University, Yonezawa, Japan, according to the protocol enzyme linked immunosorbent assay (ELISA) kits (Douset sandwich ELISA test, recombinant mouse EGFR). The JNK-2 inhibitory assay was performed at the Faculty of Engineering, Yamagata University, Yonezawa, Japan, according to the protocol of enzyme-linked immunosorbent assay (ELISA), the assay was carried out using the JNK-2 kit (Simple Step ELISA, pT183/Y185, Abcam Company, Cambridge, CB2 0AX, UK). Apoptosis and cell cycle analysis was performed at Faculty of medicine, Yamagata University, Yamagata, Japan, using BD FACS melody. Molecular docking was performed at the Nano Medical Engineering Laboratory, RIKEN Cluster for Pioneering Researchers, RIEKN, Japan, using ICM-Pro 3.8 software (MolSoft L.L.C., San Diego, CA, USA).
According to the standard water-soluble tetrazolium-8 (WST-8) assay, the current synthesized compounds have been tested for their anticancer activities against different five cancer cell lines; DLD-1, Hela, K562, SUIT-2, and HepG2 and daunorubicin was used as reference drug by the WST-8 assay. The five cells were maintained in a suspension culture, (Dulbecco’s modified eagle medium (DMEM) for SUIT-2, Hela, and HepG2 or PRIM for K562 and DLD), supplemented with 5% FBS (Fetal Bovine Serum) containing 1% of a penicillin-streptomycin (1:1) mixture. A 100 μL aliquot of cells (10,000 cells/mL) was added to a 96 well plate and incubated for 24 h at 37 °C in a humidified incubator containing 5% CO2 in the air. […] Then A 10 μL WST-8 solution (mixture of WST-8 and 1-methoxy PMS) was added to each well and the incubation continued for 3 h. The visible absorbance at 450 nm and 630 nm as the reference wavelength of each well was quantified using an MTP-310 absorbance microplate reader. Daunorubicin was used as a positive control. The results of cytotoxicity were recorded as growth inhibition percentages and as IC50 values.

[2] = Nitric oxide release, Griess colorimetric method; format: physicochemical; conditions: phosphate buffer pH 7.4, N-acetylcysteine
Protocol: For the indirect determination of NO, the Griess colorimetric approach was utilized, which includes spectrophotometry measurements of the stable decomposition products NO2^− and NO3^−. This method requires that NO3^− is first reduced to NO2^− and then NO2^− is determined by the Griess reaction that includes two steps, the first step is a diazotization reaction in which the NO-derived nitrogen agent, dinitrogen trioxide (N2O3), which is produced by the spontaneous oxidation of NO with sulfanilamide to form the diazonium ion, is used. […] In order to evaluate thiol-induced NO generation from the appropriate compounds, including NO-donating oximes 8a–b, 8d–i, and 10a–c, they were incubated in aqueous phosphate buffer of pH 7.4 in the presence of excess N-acetylcysteine, which serves as a source of thiols that are essential for the release of NO from oximes. The signal intensity of the dye is proportional to the amount of NO released. To quantify the amount of NO released, a standard curve was made by measuring the change in absorbance of various concentrations of standard sodium nitrite solutions treated by the same way. […] At the first hour, the amount of nitric oxide released increased in compounds 8i, 8b, and 8h, while the maximum release of nitric oxide occurring in compounds 8b and 8h was at 2 h. Then, the amount of nitic oxide released declined, which may explain the biological importance of oxime moiety as a source of nitric oxide release in comparison with ketone intermediates 7a–j and 9a–c, as shown in the anticancer activity of oxime derivatives.
The nitrite calibration curve in addition to the absorbance of the tested compounds were measured on Shimadzu UV-160, UV-Visible spectrophotometer (Shimadzu, Tokyo, Japan). The tested compounds were prepared as solutions in DMF and diluted with the buffer system until a concentration of 100 mM. N-Acetyl cysteine solution was prepared in a concentration of 500 mM in methanol. Griess reagent consists of 0.1% w/v NED solution in water and sulfanilamide solution (1% w/v of sulfanilamide in 5% w/v phosphoric acid). Nitrite standard solution (0.1 M sodium nitrite in water) stock solution was prepared, from which a dilute solution of 100 μM nitrite solution was prepared by dilution 1 mL of the stock solution to 1000 mL with phosphate buffer of pH 7.4. From this solution, 4 serials 2-fold dilutions were performed to generate different concentrations of the nitrite solution (100.00, 50.00, 25.00, and 12.50 μM) and these concentrations were used for nitrite calibration curve.
Sulfanilamide and NEDD solutions were kept at 25 °C; […] of sulfanilamide solution was added to each dilution of the prepared standard nitrite solution. The mixture was left at 25 °C for 5–10 min protected from light. To this mixture, […] of the NEDD solution was added and the mixture was again left for 5–10 min at 25 °C protected from light. […] A plot of the average absorbance value for each concentration of the nitrite standard solution as a function of “Y” against nitrite concentration as a function of “X” was constructed to generate a standard nitrite calibration curve at pH 7.4.
The amount of NO released from the tested compounds 8a–b, 8d–I, and 10a–c was measured using the Griess colorimetric method either in phosphate buffer of pH 7.4 in the presence of N-acetyl cysteine, which serves as a source of thiols. The amount of NO released from the tested compounds was measured relative to NO released from standard sodium nitrite solution.
Different solutions of the tested compounds 8a–b, 8d–i, and 10a–c in DMF were diluted using phosphate buffer of pH 7.4 till a final concentration of 100 mM (test solutions). To […] of different test solutions, […] of N-acetyl cysteine solution was added and the obtained solution was kept in an incubator at 37 °C (treated solutions). […]

SMILES	inhibition at 100 µM [1] [%]	IC50 [1] [µM]	Amount of NO Released (mol/mol) 1 h [2] [mol/mol]	Amount of NO Released (mol/mol) 2 h [2] [mol/mol]	Amount of NO Released (mol/mol) 3 h [2] [mol/mol]	Amount of NO Released (mol/mol) 4 h [2] [mol/mol]
COc1ccc(-c2cc(C(=O)Oc3ccc(/C(C)=N/O)cc3OC)nn2-c2ccc(S(N)(=O)=O)cc2)cc1 [Compound 8h, (E)–4–(1–(Hydroxyimino)ethyl)–2–methoxyphenyl 5–(4–methoxyphenyl)–1–(4–sulfamoyl phenyl)–1H–pyrazole–3–carboxylate]	78	21	0.099 ± 0.029	0.158 ± 0.014	0.104 ± 0.033	0.094 ± 0.0022
COc1cc(/C(C)=N/O)ccc1OC(=O)c1cc(-c2ccc(Cl)cc2)n(-c2ccc(S(N)(=O)=O)cc2)n1 [Compound 8i, (E)–4–(1–(Hydroxyimino)ethyl)–2–methoxyphenyl 5–(4–chlorophenyl)–1–(4–sulfamoyl phenyl)–1H–pyrazole–3–carboxylate]	97	71	0.105 ± 0.029	0.115 ± 0.018	0.109 ± 0.046	0.087 ± 0.035
COc1cc(/C(C)=N/O)ccc1OC(=O)c1cc(-c2ccccc2)n(-c2ccc(S(N)(=O)=O)cc2)n1 [Compound 8f, (E)–4–(1–(Hydroxyimino)ethyl)–2–methoxyphenyl 5–phenyl–1–(4–sulfamoyl phenyl)–1H–pyrazole–3–carboxylate]	76	15.6	0.096 ± 0.036	0.116 ± 0.045	0.079 ± 0.030	0.048 ± 0.018
COc1cc(/C(C)=N/O)ccc1OC(=O)c1cc(-c2ccccc2)n(-c2ccccc2)n1 [Compound 8a, (E)–4–(1–(Hydroxyimino)ethyl)2–methoxyphenyl 1,5–diphenyl–1H–pyrazole–3–carboxylate]	94	22	0.095 ± 0.036	0.121 ± 0.047	0.108 ± 0.042	0.056 ± 0.022
COc1cc(/C(C)=N/O)ccc1OC(=O)c1cc(-c2ccc(C)cc2)n(-c2ccccc2)n1 [Compound 8b, (E)–4–(1–(Hydroxyimino)ethyl)–2–methoxyphenyl 1–phenyl–5–p–tolyl–1H–pyrazole–3–carboxylate]	99	13	0.102 ± 0.039	0.159 ± 0.019	0.105 ± 0.025	0.095 ± 0.030
C/C(=N\O)c1ccc(NC(=O)c2cc(-c3ccccc3)n(-c3ccc(S(N)(=O)=O)cc3)n2)cc1 [Compound 10a, (E)–N–(4–(1–(Hydroxyimino)ethyl)phenyl)–5–phenyl–1–(4–sulfamoylphenyl)–1H–pyrazole–3–carboxamide]	84	16	0.054 ± 0.023	0.108 ± 0.043	0.069 ± 0.024	0.036 ± 0.012
COc1ccc(-c2cc(C(=O)Oc3ccc(/C(C)=N/O)cc3OC)nn2-c2ccccc2)cc1OC [Compound 8e, (E)–4–(1–(Hydroxyimino)ethyl)–2–methoxyphenyl 5–(3,4–dimethoxy phenyl)–1–phenyl–1H–pyrazole–3–carboxylate]	93	20	0.064 ± 0.022	0.120 ± 0.046	0.081 ± 0.030	0.048 ± 0.018
COc1ccc(-c2cc(C(=O)Nc3ccc(/C(C)=N/O)cc3)nn2-c2ccc(S(N)(=O)=O)cc2)cc1 [Compound 10b, (E)–N–(4–(1–(Hydroxyimino)ethyl)phenyl)–5–(4–methoxyphenyl)–1–(4–sulfamoylphenyl)–1H–pyrazole–3–carboxamide]	84		0.095 ± 0.035	0.114 ± 0.046	0.079 ± 0.031	0.031 ± 0.018
COc1cc(/C(C)=N/O)ccc1OC(=O)c1cc(-c2ccc(C)cc2)n(-c2ccc(S(N)(=O)=O)cc2)n1 [Compound 8g, (E)–4–(1–(Hydroxyimino)ethyl)–2–methoxyphenyl 1–(4–sulfamoylphenyl)–5–p–tolyl–1H–pyrazole–3–carboxylate]	87	7.6	0.083 ± 0.035	0.154 ± 0.044	0.141 ± 0.039	0.089 ± 0.019
